In ChEMBL document CHEMBL2074452, “Mercapturic acids (N-acetylcysteine S-conjugates) as endogenous substrates for the renal organic anion transporter-1” (Mol Pharmacol, 2001):

Experiments:
[1] = target: T1, Solute carrier family 22 member 6 (Rattus norvegicus, UniProt O35956); assay: TP_TRANSPORTER: inhibition of DNP-NAC uptake (DNP-NAC: 1 uM, Allyl-NAC: 1000 uM) in Xenopus laevis oocytes; assay type: functional, cell-based; settings: oocyte
T1 sequence (O35956 whole entry): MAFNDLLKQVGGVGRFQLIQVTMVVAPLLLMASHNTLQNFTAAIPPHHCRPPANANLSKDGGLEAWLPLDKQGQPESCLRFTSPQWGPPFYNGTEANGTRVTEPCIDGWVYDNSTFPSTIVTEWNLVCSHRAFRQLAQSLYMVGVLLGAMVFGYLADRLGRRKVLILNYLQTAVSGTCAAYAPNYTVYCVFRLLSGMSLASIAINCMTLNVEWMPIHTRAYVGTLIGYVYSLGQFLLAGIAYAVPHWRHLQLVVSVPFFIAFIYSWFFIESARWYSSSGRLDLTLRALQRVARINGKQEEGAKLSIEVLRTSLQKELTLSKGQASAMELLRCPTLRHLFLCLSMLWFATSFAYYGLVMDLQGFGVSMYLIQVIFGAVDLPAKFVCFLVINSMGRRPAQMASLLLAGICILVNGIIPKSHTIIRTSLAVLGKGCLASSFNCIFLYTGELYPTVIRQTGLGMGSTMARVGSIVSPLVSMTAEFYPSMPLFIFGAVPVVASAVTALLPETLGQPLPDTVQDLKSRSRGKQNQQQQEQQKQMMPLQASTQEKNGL

[2] = target: T1, Solute carrier family 22 member 6; assay: TP_TRANSPORTER: inhibition of PAH uptake (PAH: 20 uM, Allyl-NAC: 1000 uM) in Xenopus laevis oocytes; assay type: functional, cell-based; settings: oocyte
[3] = target: T1, Solute carrier family 22 member 6; assay: TP_TRANSPORTER: inhibition of PAH uptake (PAH: 20 uM, Dodecyl-NAC: 500 uM) in Xenopus laevis oocytes; assay type: functional, cell-based; settings: oocyte
[4] = target: T1, Solute carrier family 22 member 6; assay: TP_TRANSPORTER: inhibition of DNP-NAC uptake (DNP-NAC: 1 uM, Dodecyl-NAC: 1000 uM) in Xenopus laevis oocytes; assay type: functional, cell-based; settings: oocyte
[5] = target: T1, Solute carrier family 22 member 6; assay: TP_TRANSPORTER: inhibition of PAH uptake in Xenopus laevis oocytes; assay type: functional, cell-based, Oocyte
[6] = target: T1, Solute carrier family 22 member 6; assay: TP_TRANSPORTER: inhibition of PAH uptake (PAH: 20 uM, Butyl-NAC: 500 uM) in Xenopus laevis oocytes; assay type: functional, cell-based; settings: oocyte
[7] = target: T1, Solute carrier family 22 member 6; assay: TP_TRANSPORTER: inhibition of DNP-NAC uptake (DNP-NAC: 1 uM, Propyl-NAC: 1000 uM) in Xenopus laevis oocytes; assay type: functional, cell-based; settings: oocyte
[8] = target: T1, Solute carrier family 22 member 6; assay: TP_TRANSPORTER: inhibition of PAH uptake (PAH: 20 uM, Propyl-NAC: 1000 uM) in Xenopus laevis oocytes; assay type: functional, cell-based; settings: oocyte
[9] = target: T1, Solute carrier family 22 member 6; assay: TP_TRANSPORTER: inhibition of DNP-NAC uptake (DNP-NAC: 1 uM, Butyl-NAC: 1000 uM) in Xenopus laevis oocytes; assay type: functional, cell-based; settings: oocyte
[10] = target: T1, Solute carrier family 22 member 6; assay: TP_TRANSPORTER: inhibition of PAH uptake (PAH: 20 uM, PentaCl-butadiene-NAC: 500 uM) in Xenopus laevis oocytes; assay type: functional, cell-based; settings: oocyte
[11] = target: T1, Solute carrier family 22 member 6; assay: TP_TRANSPORTER: inhibition of DNP-NAC uptake (DNP-NAC: 1 uM, PentaCl-butadiene-NAC: 1000 uM) in Xenopus laevis oocytes; assay type: functional, cell-based; settings: oocyte
[12] = target: T1, Solute carrier family 22 member 6; assay: TP_TRANSPORTER: inhibition of DNP-NAC uptake (DNP-NAC: 1 uM, Benzyl-NAC: 1000 uM) in Xenopus laevis oocytes; assay type: functional, cell-based; settings: oocyte
[13] = target: T1, Solute carrier family 22 member 6; assay: TP_TRANSPORTER: inhibition of DNP-NAC uptake (DNP-NAC: 1 uM, NAC: 1000 uM) in Xenopus laevis oocytes; assay type: functional, cell-based; settings: oocyte
[14] = target: T1, Solute carrier family 22 member 6; assay: TP_TRANSPORTER: inhibition of PAH uptake (PAH: 20 uM, 3-Phenyl-propyl-NAC: 1000 uM) in Xenopus laevis oocytes; assay type: functional, cell-based; settings: oocyte
[15] = target: T1, Solute carrier family 22 member 6; assay: TP_TRANSPORTER: inhibition of DNP-NAC uptake (DNP-NAC: 1 uM, 3-Phenyl-propyl-NAC: 1000 uM) in Xenopus laevis oocytes; assay type: functional, cell-based; settings: oocyte
[16] = target: T1, Solute carrier family 22 member 6; assay: TP_TRANSPORTER: inhibition of PAH uptake (PAH: 20 uM, diCl-vinyl-NAC: 1000 uM) in Xenopus laevis oocytes; assay type: functional, cell-based; settings: oocyte
[17] = target: T1, Solute carrier family 22 member 6; assay: TP_TRANSPORTER: inhibition of DNP-NAC uptake (DNP-NAC: 1 uM, diCl-vinyl-NAC: 1000 uM) in Xenopus laevis oocytes; assay type: functional, cell-based; settings: oocyte
[18] = target: T1, Solute carrier family 22 member 6; assay: TP_TRANSPORTER: inhibition of DNP-NAC uptake (DNP-NAC: 1 uM, Propanol-NAC: 1000 uM) in Xenopus laevis oocytes; assay type: functional, cell-based; settings: oocyte
[19] = target: T1, Solute carrier family 22 member 6; assay: TP_TRANSPORTER: inhibition of PAH uptake (PAH: 20 uM, Propanol-NAC: 1000 uM) in Xenopus laevis oocytes; assay type: functional, cell-based; settings: oocyte
[20] = target: T1, Solute carrier family 22 member 6; assay: TP_TRANSPORTER: inhibition of PAH uptake (PAH: 20 uM, N-acetylnorleucine: 1000 uM) in Xenopus laevis oocytes; assay type: functional, cell-based; settings: oocyte
[21] = target: T1, Solute carrier family 22 member 6; assay: TP_TRANSPORTER: inhibition of DNP-NAC uptake (DNP-NAC: 1 uM, N-acetylnorleucine: 1000 uM) in Xenopus laevis oocytes; assay type: functional, cell-based; settings: oocyte
[22] = substrate: CC(=O)N[C@@H](CSc1ccc([N+](=O)[O-])cc1[N+](=O)[O-])C(=O)O; assay: TP_TRANSPORTER: uptake in Xenopus laevis oocytes; assay type: functional, cell-based, Oocyte

C=CCSCC(NC(C)=O)C(=O)O (stereo not given)
Activity [1]: inhibitor [(at a rough estimate) 15 % of control] | Activity [2]: inhibitor [(at a rough estimate) 10 % of control]

CCCCCCCCCCCCSC[C@@H](NC(C)=O)C(=O)O
Activity [3]: inhibitor [(at a rough estimate) 15 % of control] | Activity [4]: inhibitor [(at a rough estimate) <5 % of control]

CCCCC/C=C\C\C=C/C=C/C=C/[C@@H](SC[C@H](NC(C)=O)C(=O)O)[C@@H](O)CCCC(=O)O
Ki [5]: 9000 nM

CCCCSCC(NC(C)=O)C(=O)O (stereo not given)
Activity [6]: inhibitor [(at a rough estimate) 5 % of control] | Activity [7]: inhibitor [(at a rough estimate) 30 % of control] | Activity [8]: inhibitor [(at a rough estimate) 10 % of control] | Activity [9]: inhibitor [(at a rough estimate) 5 % of control]

CC(=O)NC(CS/C(Cl)=C(\Cl)C(Cl)=C(Cl)Cl)C(=O)O (stereo not given)
Activity [10]: inhibitor [(at a rough estimate) 15 % of control] | Activity [11]: inhibitor [(at a rough estimate) <5 % of control]

COC(=O)[C@@H](CSCc1ccccc1)NC(C)=O
Ki [5]: 400 nM | Activity [12]: inhibitor [(at a rough estimate) 30 % of control]

CC(=O)N[C@@H](CS)C(=O)O [ACETYLCYSTEINE]
Activity [13]: inhibitor [(at a rough estimate) 60 % of control]

CC(=O)N[C@@H](CSc1ccc([N+](=O)[O-])cc1[N+](=O)[O-])C(=O)O
Ki [5]: 1900 nM

CC(=O)NC(CSCCCc1ccccc1)C(=O)O (stereo not given)
Activity [14]: inhibitor [(at a rough estimate) 5 % of control] | Activity [15]: inhibitor [(at a rough estimate) 10 % of control]

CCSC[C@@H](NC(C)=O)C(=O)O
Ki [5]: 1100 nM

CC(=O)N[C@@H](CS/C(Cl)=C\Cl)C(=O)O
Activity [16]: inhibitor [(at a rough estimate) 5 % of control] | Activity [17]: inhibitor [(at a rough estimate) 25 % of control]

CC(=O)NC(CSCCCO)C(=O)O (stereo not given)
Activity [18]: inhibitor [(at a rough estimate) 30 % of control] | Activity [19]: inhibitor [(at a rough estimate) 5 % of control]

CCCC[C@H](NC(C)=O)C(=O)O
Activity [20]: inhibitor [(at a rough estimate) 15 % of control] | Activity [21]: inhibitor [(at a rough estimate) 35 % of control]

B1: Solute carrier family 22 member 6 (Rattus norvegicus) (protein)
chain: T1 sequence (O35956 whole entry)
Km [22]: 2 µM
